Read-outs that look alike come from different tables or passages of the source.
Columns and labels:
[1] = system: phosphorylated AKT Ser473 (pAKT S473), mTORC2 activity, PC3 cells; experiment: mTOR target engagement assay, immunofluorescent cell-based, pAKT S473 readout (mTORC2 activity); conditions: Homo sapiens
Method: (§1) The target engagement of mTOR kinase inhibitors was evaluated using an immunofluorescent cell-based assay. In this assay, inhibition of mTORC1 activity was measured by the reduction in the level of phosphorylated 4E-BP1^[…] (p4E-BP1 Thr37/46), and inhibition of mTORC2 activity was measured by the reduction of phosphorylated AKT^Ser473 (pAKT S473).
PC3 cells (prostate tumor cell-line that contains a mutation in the tumor suppressor PTEN, that promotes the phosphorylation and activation of AKT and 4E-BP1) were used in the immunofluorescence assay. […] PC3 cells were then treated with 40 μl of the serially diluted test compounds (in 5% fetal bovine serum, F12 medium containing 0.25% DMSO) for ninety minutes at 37° C. The test compound solution was removed, and the plates were washed gently two times with 25 μl phosphate buffered saline (PBS). […] 5% Goat serum in PBS/0.3% Triton was used to block non-specific binding (60 minutes).
The primary antibodies targeting pAKT S473 and p4E-BP1 Thr37/46 were diluted into PBS/0.3% Triton and incubated with the cells overnight at 4° C. […] Plates were washed three times with PBS/0.1% Tween 20 before adding the secondary antibody at a 1:200 dilution.
Finally, the plates were washed three times with PBS/0.1% Tween 20 and the fluorescent intensity was read using an Analyst HT from Molecular Devices.

[2] = system: phosphorylated 4E-BP1 Thr37/46 (p4E-BP1 Thr37/46), mTORC1 activity, PC3 cells; experiment: mTOR target engagement assay, immunofluorescent cell-based, p4E-BP1 Thr37/46 readout (mTORC1 activity); conditions: Homo sapiens, read-out: p4E-BP1 Thr37/46 IC50
Method: as §1
PC3 cells (prostate tumor cell-line that contains a mutation in the tumor suppressor PTEN, that promotes the phosphorylation and activation of AKT and 4E-BP1) were used in the immunofluorescence assay. PC3 cells were seeded on 384 well plates (black clear bottom, Matrix #4332) overnight. PC3 cells were then treated with 40 μl of the serially diluted test compounds (in 5% fetal bovine serum, F12 medium containing 0.25% DMSO) for ninety minutes at 37° C. The test compound solution was removed, and the plates were washed gently two times with 25 μl phosphate buffered saline (PBS). The cells were fixed by adding 25 μl of Prefer reagent (from Anatech LTD, Cat#414, a glyoxal fixative for fixing proteins within a cell) for sixty minutes followed by three washes with PBS. 5% Goat serum in PBS/0.3% Triton was used to block non-specific binding (60 minutes).
The primary antibodies targeting pAKT S473 and p4E-BP1 Thr37/46 were diluted into PBS/0.3% Triton and incubated with the cells overnight at 4° C. The antibodies targeting pAKTS473 (Cat#4085, Cell signaling) and p4E-BP1 Thr37/46 (Cat#2855, Cell signaling) were used at a 1:100 dilution. Plates were washed three times with PBS/0.1% Tween 20 before adding the secondary antibody at a 1:200 dilution. (goat anti-rabbit containing a fluorescent label, Alexa Fluor 488, Cat#A11008, Invitrogen) in PBS/0.3% Triton for 60 minutes.
Finally, the plates were washed three times with PBS/0.1% Tween 20 and the fluorescent intensity was read using an Analyst HT from Molecular Devices. The fluorescent intensity values from the serially diluted compound treatment group were analyzed using the Xlfit 4 program ([…]) (Formula 205: Y=Bottom+(Top-Bottom)/(1+(IC50/X)^Hillslope) to generate the IC50 value. Where Top is the maximum signal without Compound (+DMSO only) and Bottom represents maximum inhibition. Y is the fluorescence at some compound concentration. The control used to determine the fluorescent intensities for 100% pAKT S473 or 100% phosphorylated p4E-BP1 Thr37/46 were measured from untreated wells that contained only DMSO, instead of test compound.

[3] = PC-3, PC3 cells, compound treatment ninety minutes at 37° C.

In the case of `CC(=O)c1c([C@@H]2C[C@H]3CC[C@@H](C2)N3C(=O)CNS(C)(=O)=O)nc2c(-c3ccc(-c4ccccc4)nc3)cnn2c1N` [Compound 1.1.23, N-(2-((1R,3s,5S)-3-(6-acetyl-7-amino-3-(6-phenylpyridin-3-yl)pyrazolo[1,5-a]pyrimidin-5-yl)-8-azabicyclo[3.2.1]octan-8-yl)-2-oxoethyl)methanesulfonamide], the IC50 [1, 3] is reported as 100 to 1000 nM and the IC50 [2, 3] is reported as 100 to 1000 nM.
Compound `CC(=O)Nc1ccc(-c2cnn3c(N)c(C(C)=O)c([C@@H]4C[C@H]5CC[C@@H](C4)N5C(=O)c4ncn[nH]4)nc23)cn1` [Compound 8.76, N-(5-(5-((1R,3s,5S)-8-(1H-1,2,4-triazole-5-carbonyl)-8-azabicyclo[3.2.1]octan-3-yl)-6-acetyl-7-aminopyrazolo[1,5-a]pyrimidin-3-yl)pyridin-2-yl)acetamide] has an IC50 ([1]; PC-3, PC3 cells) of 1 to 100 nM and an IC50 ([2]; PC-3, PC3 cells) of 1 to 100 nM.
With `Nc1c(C2CC2)c([C@@H]2C[C@H]3CC[C@@H](C2)N3C(=O)c2nnc[nH]2)nc2c(-c3ccc(-c4ncc[nH]4)nc3)cnn12` [Compound 6.2, ((1R,3s,5S)-3-(3-(6-(1H-imidazol-2-yl)pyridin-3-yl)-7-amino-6-cyclopropylpyrazolo [1,5-a]pyrimidin-5-yl)-8-azabicyclo[3.2.1]octan-8-yl)(4H-1,2,4-triazol-3-yl)methanone] the IC50 ([1]; PC-3, Table 6-1, PC3 cells) was 1 to 100 nM and the IC50 ([2]; PC-3, Table 6-1, PC3 cells) was 1 to 100 nM.
`Cc1nc(-c2ccc(-c3cnn4c(N)c(S(C)(=O)=O)c([C@@H]5C[C@H]6CC[C@@H](C5)N6C(=O)c5cn[nH]n5)nc34)cn2)cs1` [Compound 3.201, ((1R,3s,5S)-3-(7-amino-6-(methylsulfonyl)-3-(6-(2-methylthiazol-4-yl)pyridin-3-yl)pyrazolo[1,5-a]pyrimidin-5-yl)-8-azabicyclo[3.2.1]octan-8-yl)(2H-1,2,3-triazol-4-yl)methanone] was tested, and the IC50 ([1]; PC-3, Table 3-1, PC3 cells) was 100 to 1000 nM and the IC50 ([2]; PC-3, Table 3-1, PC3 cells) was 1000 to 10000 nM.
`NC(=O)c1c([C@@H]2C[C@H]3CC[C@@H](C2)N3C(=O)c2nc[nH]n2)nc2c(-c3ccc(-c4ccccc4)nc3)cnn2c1N` [Compound 8.40] gave an IC50 ([1]; PC-3, PC3 cells) of 1 to 100 nM and an IC50 ([2]; PC-3, PC3 cells) of 1 to 100 nM.
Compound `COc1ccc(-c2ccc(-c3cnn4c(N)c(S(C)(=O)=O)c([C@@H]5C[C@H]6CC[C@@H](C5)N6C(=O)c5nnc[nH]5)nc34)cn2)cc1C` [Compound 3.50, ((1R,3s,5S)-3-(7-amino-3-(6-(4-methoxy-3-methylphenyl)pyridin-3-yl)-6-(methylsulfonyl)pyrazolo[1,5-a]pyrimidin-5-yl)-8-azabicyclo[3.2.1]octan-8-yl)(4H-1,2,4-triazol-3-yl)methanone] has an IC50 ([1]; PC-3, Table 3-1, PC3 cells) of 1 to 100 nM and an IC50 ([2]; PC-3, Table 3-1, PC3 cells) of 1 to 100 nM.
`Cn1ccc(-c2ccc(-c3cnn4c(N)c(S(C)(=O)=O)c([C@@H]5C[C@H]6CC[C@@H](C5)N6C(=O)c5nnc[nH]5)nc34)c[n+]2[O-])n1` [Compound 3.41, 5-(5-((1R,3s,5S)-8-(4H-1,2,4-triazole-3-carbonyl)-8-azabicyclo[3.2.1]octan-3-yl)-7-amino-6-(methylsulfonyl)pyrazolo[1,5-a]pyrimidin-3-yl)-2-(1-methyl-1H-pyrazol-3-yl)pyridine 1-oxide] gave an IC50 ([1]; PC-3, Table 3-1, PC3 cells) of 1 to 100 nM and an IC50 ([2]; PC-3, Table 3-1, PC3 cells) of 100 to 1000 nM.
With `CC(=O)c1c([C@@H]2C[C@H]3CC[C@@H](C2)N3C(=O)C(C)(CO)CO)nc2c(-c3ccc(-c4ncc[nH]4)nc3)cnn2c1N` [Compound 6.46, 1-((1R,3s,5S)-3-(3-(6-(1H-imidazol-2-yl)pyridin-3-yl)-6-acetyl-7-aminopyrazolo[1,5-a]pyrimidin-5-yl)-8-azabicyclo[3.2.1]octan-8-yl)-3-hydroxy-2-(hydroxymethyl)-2-methylpropan-1-one] the IC50 ([1]; PC-3, Table 6-1, PC3 cells) was 100 to 1000 nM and the IC50 ([2]; PC-3, Table 6-1, PC3 cells) was 100 to 1000 nM.
With `COCCOc1ccc(-c2ccc(-c3cnn4c(N)c(C(C)=O)c([C@@H]5C[C@H]6CC[C@@H](C5)N6C(=O)c5nnc[nH]5)nc34)cn2)cc1` [Compound 1.1.69, 1-(5-((1R,3s,5S)-8-(4H-1,2,4-triazole-3-carbonyl)-8-azabicyclo[3.2.1]octan-3-yl)-7-amino-3-(6-(4-(2-methoxyethoxy)phenyl)pyridin-3-yl)pyrazolo[1,5-a]pyrimidin-6-yl)ethanone] the IC50 [1, 3] was 100 to 1000 nM and the IC50 [2, 3] was 100 to 1000 nM.
For `CC(=O)c1c([C@@H]2C[C@H]3CC[C@@H](C2)N3C(=O)CO)nc2c(-c3ccc(-c4ncc(C)[nH]4)nc3)cnn2c1N` [Compound 6.26, 1-((1R,3s,5S)-3-(6-acetyl-7-amino-3-(6-(5-methyl-1H-imidazol-2-yl)pyridin-3-yl)pyrazolo[1,5-a]pyrimidin-5-yl)-8-azabicyclo[3.2.1]octan-8-yl)-2-hydroxyethanone], the IC50 ([1]; PC-3, Table 6-1, PC3 cells) was 1 to 100 nM and the IC50 ([2]; PC-3, Table 6-1, PC3 cells) was 1 to 100 nM.
With `[2H]C1(O)CCCc2cc(-c3cnn4c(N)c(C(C)=O)c([C@H]5CC6CC[C@H](C5)N6C(=O)c5nnc[nH]5)nc34)cnc21` (stereo partly drawn) [Compound 7.57, DEUTERATED-(3- EXO)-3-[6-ACETYL-7- AMINO-3-(5,6,7,8- TETRAHYDRO-8- HYDROXY-3- QUINOLINYL- (D))PYRAZOLO[1,5- a]PYRIMIDIN-5-YL]-8- (4H-1,2,4-TRIAZOL-3- YLCARBONYL)-8- AZABICYCLO[3.2.1] OCTANE] the IC50 ([1]; PC-3, PC3 cells) was 100 to 1000 nM and the IC50 ([2]; PC-3, PC3 cells) was 1 to 100 nM.
Compound `N#Cc1ncc(-c2cnn3c(N)c(C4CC4)c([C@@H]4C[C@H]5CC[C@@H](C4)N5C(=O)c4nnc[nH]4)nc23)cn1` [Compound 8.96, 5-(5-((1R,3s,5S)-8-(4H-1,2,4-triazole-3-carbonyl)-8-azabicyclo[3.2.1]octan-3-yl)-7-amino-6-cyclopropylpyrazolo[1,5-a]pyrimidin-3-yl)pyrimidine-2-carbonitrile] has an IC50 ([1]; PC-3, PC3 cells) of 1000 to 10000 nM and an IC50 ([2]; PC-3, PC3 cells) of 1000 to 10000 nM.
Work on `CS(=O)(=O)c1c([C@@H]2C[C@H]3CC[C@@H](C2)N3C(=O)c2nnc[nH]2)nc2c(-c3ccc(-c4ccc(OC(F)F)cc4)nc3)cnn2c1N` [Compound 3.55, ((1R,3s,5S)-3-(7-amino-3-(6-(4-(difluoromethoxy)phenyl)pyridin-3-yl)-6-(methylsulfonyl)pyrazolo[1,5-a]pyrimidin-5-yl)-8-azabicyclo[3.2.1]octan-8-yl)(4H-1,2,4-triazol-3-yl)methanone] yielded an IC50 ([1]; PC-3, Table 3-1, PC3 cells) of 1 to 100 nM and an IC50 ([2]; PC-3, Table 3-1, PC3 cells) of 1 to 100 nM.
In the case of `CC(=O)c1c([C@@H]2C[C@H]3CC[C@@H](C2)N3C(=O)CO)nc2c(-c3ccc(C(N)(C(F)(F)F)C(F)(F)F)nc3)cnn2c1N` [Compound 7.81, 1-((1R,3s,5S)-3-(6-acetyl-7-amino-3-(6-(2-amino-1,1,1,3,3,3-hexafluoropropan-2-yl)pyridin-3-yl)pyrazolo[1,5-a]pyrimidin-5-yl)-8-azabicyclo[3.2.1]octan-8-yl)-2-hydroxyethanone], the IC50 ([1]; PC-3, PC3 cells) is reported as greater than 10000 nM and the IC50 ([2]; PC-3, PC3 cells) is reported as 1000 to 10000 nM.
With `CC(=O)c1c([C@@H]2C[C@H]3CC[C@@H](C2)N3C(=O)c2nnc[nH]2)nc2c(-c3ccc(C(F)(F)F)nc3)cnn2c1N` [Compound 1.1.104, 1-(5-((1R,3s,5S)-8-(4H-1,2,4-triazole-3-carbonyl)-8-azabicyclo[3.2.1]octan-3-yl)-7-amino-3-(6-(trifluoromethyl)pyridin-3-yl)pyrazolo[1,5-a]pyrimidin-6-yl)ethanone] the IC50 [1, 3] was 100 to 1000 nM and the IC50 [2, 3] was 100 to 1000 nM.
With `Cc1nc(-c2ccc(-c3cnn4c(N)c(C5CC5)c([C@@H]5C[C@H]6CC[C@@H](C5)N6C(=O)CO)nc34)cn2)[nH]c1C` [Compound 6.32, 1-((1R,3s,5S)-3-(7-amino-6-cyclopropyl-3-(6-(4,5-dimethyl-1H-imidazol-2-yl)pyridin-3-yl)pyrazolo[1,5-a]pyrimidin-5-yl)-8-azabicyclo[3.2.1]octan-8-yl)-2-hydroxyethanone] the IC50 ([1]; PC-3, Table 6-1, PC3 cells) was 1 to 100 nM and the IC50 ([2]; PC-3, Table 6-1, PC3 cells) was 100 to 1000 nM.
